Experimental data from US10626135B2, “Crystal forms of sodium-glucose co-transporter inhibitor, processes for preparation and use thereof” (CRYSTAL PHARMACEUTICAL (SUZHOU) CO., LTD., priority 2016, dated 2020).
Values after ≈ are worked out from the molar mass of the structure shown. “Also recorded” adds a separate entry of the source.

Experiments:
[1] = Morphology assessment by polarized light microscopy; format: physicochemical
Method: The existing crystalline Form 2 and Form I in the present disclosure were tested by polarized light microscopy. The PLM results of the Form 2 and Form I were shown in FIG. 48 and FIG. 49, respectively.

[2] = Mechanical stability assessment: manual grinding, XRPD; format: physicochemical; conditions: ground manually for 5 minutes in mortar
Method: Solid sample of Form I, Form VI and the existing crystalline Form 2 were ground manually for 5 minutes in mortar. XRPD was applied to detect the crystalline form.

[3] = Particle size distribution assessment (laser particle size analyzer); format: physicochemical; conditions: for D10 / D50 / D90 / MV (average particle size based on volume): wet method, Isopar G
Description: The result of particle size distribution (PSD) in the present disclosure was acquired by laser particle size analyzer with S3500 model from Microtrac Company. The Microtrac S3500 is equipped with a SDC (Sample Delivery Controller) sampling system. This experiment uses a wet method and the dispersion medium is Isopar G. The method and parameters of the laser particle size analyzer are as follows: [table] Certain amount of Form I, Form V, Form VIII and existing crystalline Form 2 were taken for particle size distribution test, and the results were shown in Table 29.

[4] = Dynamic solubility in FaSSIF (fasted state simulated intestinal fluids, pH=6.5), HPLC; format: physicochemical; conditions: for Solubility relative to existing crystalline Form 2: FaSSIF, 1 hour
Method: (§1) The HPLC method parameters for solubility test in the present disclosure are as follows:
(§2) Saturated solutions of Form I, Form II, Form III, Form VII and the existing crystalline Form 2 in SGF (Simulated gastric fluids) were prepared. Saturated solutions of Form II, Form III, Form VII, Form VIII and the existing crystalline Form 2 in FaSSIF (Fasted state simulated intestinal fluids, pH=6.5) were prepared. After equilibrated for 1 hour, concentrations of the saturated solutions were measured by High Performance Liquid Chromatography (HPLC).

[5] = Dynamic solubility in SGF (simulated gastric fluids), HPLC; format: physicochemical; conditions: for Solubility 1 hour: Media: SGF, equilibrated for 1 hour; for Solubility relative to existing crystalline Form 2: SGF, 1 hour
Method: as §1, §2

[6] = Stability study: storage at 25° C./60% RH and 40° C./75% RH, XRPD; format: physicochemical; conditions: for Stability on storage: 25° C./60% RH and 40° C./75% RH for 3 months; for Solid Form after storage: 3 months
Method: Form I, Form II, Form III and Form VI were stored under different conditions of 25° C./60% RH and 40° C./75% RH for 3 months. XRPD was applied to detect the crystalline forms. The XRPD overlay of Form I, Form II, Form III and Form VI before and after stored under above two conditions were shown in FIG. 44, FIG. 45, FIG. 46 and FIG. 47, respectively.

[7] = Hygroscopicity assessment by dynamic vapor sorption (DVS); format: physicochemical; conditions: 25° C.; for Form change before and after DVS: XRPD
Method: Dynamic Vapor Sorption (DVS) is measured via a SMS (Surface Measurement Systems Ltd.) intrinsic DVS. Typical Parameters for DVS test are as follows: Temperature: 25° C. Gas and flow rate: N2, 200 mL/min dm/dt: 0.002%/min Relative Humidity (RH) range: 20% RH-95% RH-0% RH-95% RH Dynamic vapor sorption (DVS) was applied to test hygroscopicity of crystalline Form I with 13.8 mg of sample Form I at 25° C. The weight gains at each relative humidity were recorded in a cycle of 20%-95%-0%-95% RH. […] Dynamic vapor sorption (DVS) was applied to test hygroscopicity of Form VII with 11.5 mg of sample Form VII at 25° C. The weight gains at each relative humidity were recorded in a cycle of 0%-95%-0% RH.

[8] = Stability study: mixture of forms stirred in solvent systems with different water activity, residual solid by XRPD; format: physicochemical; conditions: high water activity (high humidity, ≥50% RH)
Description: The mixture of existing crystalline Form 2 disclosed in CN102112483A, Form I and Form II was stirred in several solvent systems with different water activity (aw).
It should be noted that the solvent systems for different water activity (aw) include but not limit to H2O and IPA. The same conclusion could be drawn with this experiment in other solvent systems suitable for the preparation of different water activity (aw).

type 1 diabetics = conditions: Phase 2, type 1 diabetics, compared with placebo; cited from earlier work
[9] = system: people with type 2 diabetes; conditions: Phase 2, type 2 diabetes, including those with renal impairment; cited from earlier work
[10] = Table 27, head prints Media:SGF, text says FaSSIF pH=6.5, equilibrated for 1 hour

SMILES | Crystal shape (PLM) [1] | Crystallinity [2] | Final form [2] | Mechanical stability [2] | Particle size distribution (description) [3] | D10 [3] | D50 [3] | D90 [3] | MV (average particle size based on volume) [3] | Solubility 1 hour [4, 10] | Solubility 1 hour [5] | Stability on storage [6] | Solid Form after storage ([6]; 25° C./60% RH) | Solid Form after storage ([6]; 40° C./75% RH) | Weight gain under 80% RH ([7]; cycle 20%-95%-0%-95% RH) | Form change before and after DVS ([7]; cycle 20%-95%-0%-95% RH) | Solubility relative to existing crystalline Form 2 [5] | Solubility relative to existing crystalline Form 2 [4] | also measured
CCOc1ccc(Cc2cc([C@@H]3O[C@H](SC)[C@@H](O)[C@H](O)[C@H]3O)ccc2Cl)cc1 [Form 2, (2S,3R,4R,5S,6R)-2-(4-chloro-3-(4-ethoxybenzyl)phenyl)-6-(methylthio)tetrahydro-2H-pyran-3,4,5-triol, reference compound] | needle-like shape | Decreased (Mainly | Form 2 | poor mechanical stability | wide and bimodal | 2.32 μm | 45.00 μm | 144.4 μm | 60.43 μm | 130 µg/mL (≈ 306 µM) | 60 µg/mL (≈ 141 µM) | – | – | – | – | – | – | – | –
CCOc1ccc(Cc2cc([C@@H]3O[C@H](SC)[C@@H](O)[C@H](O)[C@H]3O)ccc2Cl)cc1 [Form I, (2S,3R,4R,5S,6R)-2-(4-chloro-3-(4-ethoxybenzyl)phenyl)-6-(methylthio)tetrahydro-2H-pyran-3,4,5-triol] | rod-like shape | Decreased (Slightly | no crystalline form change; also recorded: Form I | better mechanical stability | narrow and normal | 3.34 μm | 8.97 μm | 31.63 μm | 14.48 μm | – | 100 µg/mL (≈ 235 µM) | good stability | Form I (the middle | Form I (the bottom | 3.55% | substantially unchanged; also recorded: No form change | 1.7 times | – | Stability in high water activity environment [8]: more stable than Form 2
CCOc1ccc(Cc2cc([C@@H]3O[C@H](SC)[C@@H](O)[C@H](O)[C@H]3O)ccc2Cl)cc1 [Form II, (2S,3R,4R,5S,6R)-2-(4-chloro-3-(4-ethoxybenzyl)phenyl)-6-(methylthio)tetrahydro-2H-pyran-3,4,5-triol] | – | – | – | – | – | – | – | – | – | – | 80 µg/mL (≈ 188 µM) | good stability | Form II (the middle | Form II (the bottom | 2.46% | substantially unchanged; also recorded: No form change | – | – | Stability in high water activity environment [8]: more stable than Form 2; solubility at 1 h ([4]; fasted state simulated intestinal fluid (FaSSIF), pH 6.5, fassif, thermodynamic from solid, Table 27, head prints Media:SGF, text says FaSSIF pH=6.5, equilibrated for 1 hour): 150 µg/mL (≈ 353 µM)
CCOc1ccc(Cc2cc([C@@H]3O[C@H](SC)[C@@H](O)[C@H](O)[C@H]3O)ccc2Cl)cc1 [Form III, (2S,3R,4R,5S,6R)-2-(4-chloro-3-(4-ethoxybenzyl)phenyl)-6-(methylthio)tetrahydro-2H-pyran-3,4,5-triol] | – | – | – | – | – | – | – | – | – | 180 µg/mL (≈ 424 µM) | 130 µg/mL (≈ 306 µM) | good stability | Form III (the middle | Form III (the bottom | 0.13% | substantially unchanged; also recorded: No form change | 2.2 times | 1.4 times | –
CCOc1ccc(Cc2cc([C@@H]3O[C@H](SC)[C@@H](O)[C@H](O)[C@H]3O)ccc2Cl)cc1 [Form V, (2S,3R,4R,5S,6R)-2-(4-chloro-3-(4-ethoxybenzyl)phenyl)-6-(methylthio)tetrahydro-2H-pyran-3,4,5-triol] | – | – | – | – | narrow and normal | 4.38 μm | 18.81 μm | 72.98 μm | 32.70 μm | – | – | – | – | – | – | – | – | – | –
CCOc1ccc(Cc2cc([C@@H]3O[C@H](SC)[C@@H](O)[C@H](O)[C@H]3O)ccc2Cl)cc1 [Form VI, (2S,3R,4R,5S,6R)-2-(4-chloro-3-(4-ethoxybenzyl)phenyl)-6-(methylthio)tetrahydro-2H-pyran-3,4,5-triol] | – | Decreased (Slightly | no crystalline form change; also recorded: Form VI | better mechanical stability | – | – | – | – | – | – | – | good stability | Form VI (the middle | Form VI (the bottom | 1.80% | substantially unchanged; also recorded: No form change | – | – | –
CCOc1ccc(Cc2cc([C@@H]3O[C@H](SC)[C@@H](O)[C@H](O)[C@H]3O)ccc2Cl)cc1 [Form VII, (2S,3R,4R,5S,6R)-2-(4-chloro-3-(4-ethoxybenzyl)phenyl)-6-(methylthio)tetrahydro-2H-pyran-3,4,5-triol] | irregular massive shape | – | – | – | – | – | – | – | – | 200 µg/mL (≈ 471 µM) | 150 µg/mL (≈ 353 µM) | – | – | – | – | – | 2.5 times | 1.5 times | Weight gain under 80% RH ([7]; cycle 0%-95%-0% RH): 1.08%; Form change before and after DVS ([7]; cycle 0%-95%-0% RH): substantially unchanged; also recorded: No form change
CCOc1ccc(Cc2cc([C@@H]3O[C@H](SC)[C@@H](O)[C@H](O)[C@H]3O)ccc2Cl)cc1 [Form VIII, (2S,3R,4R,5S,6R)-2-(4-chloro-3-(4-ethoxybenzyl)phenyl)-6-(methylthio)tetrahydro-2H-pyran-3,4,5-triol] | – | – | – | – | narrow and normal | 7.30 μm | 36.60 μm | 112.4 μm | 51.93 μm | 180 µg/mL (≈ 424 µM) | – | – | – | – | – | – | – | 1.4 times | Weight gain under 80% RH ([7]; cycle 0%-95%-0% RH): 0.60%; Form change before and after DVS ([7]; cycle 0%-95%-0% RH): substantially unchanged; also recorded: No form change
CCOc1ccc(Cc2cc([C@@H]3O[C@H](SC)[C@@H](O)[C@H](O)[C@H]3O)ccc2Cl)cc1 [Sotagliflozin, (2S,3R,4R,5S,6R)-2-(4-chloro-3-(4-ethoxybenzyl)phenyl)-6-(methylthio)tetrahydro-2H-pyran-3,4,5-triol] | – | – | – | – | – | – | – | – | – | – | – | – | – | – | – | – | – | – | Blood sugar (type 1 diabetics): reduction of blood sugar; Glycaemic variability (type 1 diabetics): improvement in glycaemic variability; Meal-time insulin dose (type 1 diabetics): reduced meal-time insulin dose; Blood pressure [9]: blood pressure improvements; Blood sugar [9]: lowering of blood sugar; Weight [9]: weight loss
